Experimental data reported in patent US6482948B1, “Thienopyrimidine compounds and salts thereof and process for the preparation of the same” (Nippon Soda Co., Ltd., priority 1999, dated 2002).

Legend:
[1] = system: thoracic aortas; assay: Vasodilating activity, phenylephrine-contracted thoracic aorta ring preparations (Magnus method); set-up: species or system Sprague-Dawley male rats; details: rat thoracic aorta ring preparations contracted with 1 μM phenylephrine, 37° C., drug added cumulatively
Experimental: Pharmacological Test Example 2: Vasodilating Activity
A vasodilating activity was assessed according to the method of Ken-ichi Hirata and Mitsuhiro Yokoyama (Arteriosclerosis and Hyperlipemia Research Strategies, published by Shujunsha (Japan), pages 275-277, 1996): The thoracic aortas were extracted from Sprague-Dawley male rats (weighing 180 to 360 g). After unnecessary connective tissues were removed, the aortas were cut to 5mm-long pieces to make ring strip preparations, and assessed by the Magnus method (37° C.). A nutrient solution used was a Krebs-Henseleit solution aerated with 5% carbon dioxide gas and 95% oxygen gas. Specimens were equilibrated for about 60 minutes, and then contracted by adding 1 μM of phenylephrine. 1 μM of acetylcholine was added at the second phenylepherine-induced contraction in order to confirm an endothelial cell dependent relaxation response. At the third phenylepherine-induced contraction, a drug to test was added cumulatively, and the relaxation action was observed. Drugs to test were all dissolved in DMSO to use for the tests. The tested drugs were assessed by 50% relaxation rates (EC50) obtained from vasodilation rates to respective concentrations (the maximum relaxation was measured by adding 100 μM of papaverine).

[2] = target: PDE 4 (cGMP non-inhibitable cAMP PDE); assay: Phosphodiesterase inhibiting activity, PDE 4; assay type: biochemical; details: isozyme from dog kidney; 1 μM [3H]-cAMP or [3H]-cGMP; read-out: Inhibition of PDE Activity: IC50 PDE 4
Experimental: (§1) Pharmacological Test Example 1: Phosphodiesterase Inhibiting Activity
(§2) Cyclic nucleotide phosphodiesterases from human platelets and from the heart and kidney of a dog were eluted by the concentration gradient method with 70 to 1000 mM of sodium acetate on DEAE-cellulose column chromatography (Whatman Co. Ltd., DE-52, φ3.2×13 cm) according to the method of Thompson and others (Thompson W. J., et al., Advances in Cyclic Nucleotide Research: 10, 69-92, 1979), and separated into isozymes. PDE 5 (cGMP specific PDE) and PDE 3 (cGMP inhibitable cAMP PDE) were separated from the platelets, PDE 1 (Ca-calmodulin activatable PDE) from the heart, and PDE 4 (cGMP non-inhibitable cAMP PDE) from the kidney. The method of Thompson, et al was partially modified to measure phosphodiesterase activities: 1 μM of [3H]-cAMP or [3H]-cGMP was decomposed with phosphodiesterase. The produced 5′-AMP or 5′-GMP was decomposed to adenosine or guanosine with a snake venom (Sigma V7000). The reaction solution was added to anion exchange resin (Bio-Rad Co. Ltd., AG1-X8). Non-adsorbed adenosine or guanosine was counted by a liquid scintillation counter. A concentration causing 50% inhibition of the enzyme activity (IC50) was calculated from concentration inhibition curves.

[3] = target: T1, PDE 3 (cGMP inhibitable cAMP PDE) (Homo sapiens, UniProt Q14432); assay: Phosphodiesterase inhibiting activity, PDE 3; assay type: biochemical; details: isozyme from human platelets; 1 μM [3H]-cAMP or [3H]-cGMP; read-out: Inhibition of PDE Activity: IC50 PDE 3
T1 construct: from tissue; host or cells: human platelets
T1 sequence (Q14432 whole entry): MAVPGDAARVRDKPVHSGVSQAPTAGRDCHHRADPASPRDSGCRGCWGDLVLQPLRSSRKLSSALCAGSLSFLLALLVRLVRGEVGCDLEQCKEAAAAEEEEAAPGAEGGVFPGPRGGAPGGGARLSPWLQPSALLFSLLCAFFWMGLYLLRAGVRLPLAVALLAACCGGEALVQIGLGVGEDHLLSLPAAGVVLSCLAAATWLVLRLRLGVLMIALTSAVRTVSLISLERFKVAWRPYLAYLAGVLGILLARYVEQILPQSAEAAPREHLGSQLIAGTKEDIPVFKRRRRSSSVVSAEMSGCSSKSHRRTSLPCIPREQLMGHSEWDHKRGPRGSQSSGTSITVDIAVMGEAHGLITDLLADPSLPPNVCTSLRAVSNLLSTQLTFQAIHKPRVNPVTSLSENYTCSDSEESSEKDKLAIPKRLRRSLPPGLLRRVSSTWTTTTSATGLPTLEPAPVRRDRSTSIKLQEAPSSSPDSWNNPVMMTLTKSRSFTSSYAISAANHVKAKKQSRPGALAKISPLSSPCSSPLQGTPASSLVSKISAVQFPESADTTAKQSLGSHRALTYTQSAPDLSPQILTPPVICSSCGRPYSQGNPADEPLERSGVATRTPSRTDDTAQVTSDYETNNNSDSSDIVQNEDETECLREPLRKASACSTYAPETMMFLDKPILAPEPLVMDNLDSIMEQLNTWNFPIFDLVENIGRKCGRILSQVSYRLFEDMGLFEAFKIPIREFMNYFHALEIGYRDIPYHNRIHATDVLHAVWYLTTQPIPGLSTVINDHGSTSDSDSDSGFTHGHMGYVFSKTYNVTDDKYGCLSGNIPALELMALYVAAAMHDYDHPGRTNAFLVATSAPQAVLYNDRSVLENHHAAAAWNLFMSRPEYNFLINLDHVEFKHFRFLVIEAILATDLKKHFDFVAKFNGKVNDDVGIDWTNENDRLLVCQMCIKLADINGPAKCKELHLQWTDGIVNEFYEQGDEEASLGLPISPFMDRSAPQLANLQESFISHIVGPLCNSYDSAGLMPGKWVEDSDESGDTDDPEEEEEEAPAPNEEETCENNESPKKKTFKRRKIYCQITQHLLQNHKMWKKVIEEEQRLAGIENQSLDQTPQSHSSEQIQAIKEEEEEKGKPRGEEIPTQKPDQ
Experimental: as §1, §2

[4] = target: T2, PDE 2 (Homo sapiens, UniProt O00408); assay: Phosphodiesterase inhibiting activity, PDE 2; assay type: biochemical; details: 1 μM [3H]-cAMP or [3H]-cGMP; source of isozyme not given; read-out: Inhibition of PDE Activity: IC50 PDE 2
T2 construct: eluted by the concentration gradient method with 70 to 1000 mM of sodium acetate on DEAE-cellulose column chromatography; from tissue
T2 sequence (O00408 whole entry): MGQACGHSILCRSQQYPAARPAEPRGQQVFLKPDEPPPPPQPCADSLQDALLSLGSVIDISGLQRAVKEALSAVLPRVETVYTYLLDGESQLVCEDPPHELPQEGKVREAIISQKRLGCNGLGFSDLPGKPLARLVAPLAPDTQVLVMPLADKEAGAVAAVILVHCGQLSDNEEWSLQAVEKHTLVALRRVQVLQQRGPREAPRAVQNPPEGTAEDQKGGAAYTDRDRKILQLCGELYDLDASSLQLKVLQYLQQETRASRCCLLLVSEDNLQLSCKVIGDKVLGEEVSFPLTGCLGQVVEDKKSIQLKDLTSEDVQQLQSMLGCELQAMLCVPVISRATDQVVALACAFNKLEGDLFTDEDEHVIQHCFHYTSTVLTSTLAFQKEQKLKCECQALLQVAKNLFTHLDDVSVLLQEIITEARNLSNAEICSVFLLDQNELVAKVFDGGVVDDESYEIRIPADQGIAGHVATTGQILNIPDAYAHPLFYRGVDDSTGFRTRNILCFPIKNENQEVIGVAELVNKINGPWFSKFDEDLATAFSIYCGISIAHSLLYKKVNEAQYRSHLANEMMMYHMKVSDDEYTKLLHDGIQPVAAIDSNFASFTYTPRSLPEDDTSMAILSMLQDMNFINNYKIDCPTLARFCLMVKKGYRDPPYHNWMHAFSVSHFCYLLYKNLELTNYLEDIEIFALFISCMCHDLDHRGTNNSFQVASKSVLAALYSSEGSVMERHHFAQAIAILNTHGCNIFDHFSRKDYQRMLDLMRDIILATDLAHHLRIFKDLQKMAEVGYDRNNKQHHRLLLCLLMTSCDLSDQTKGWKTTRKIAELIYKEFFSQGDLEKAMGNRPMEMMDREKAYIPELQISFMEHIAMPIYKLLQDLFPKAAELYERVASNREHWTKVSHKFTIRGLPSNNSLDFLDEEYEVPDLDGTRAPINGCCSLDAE
Experimental: [Worded in the source for another target; this target is reported under the same test.] as §1, §2

[5] = target: T3, PDE 5 (cGMP specific PDE) (Homo sapiens, UniProt O76074); assay: Phosphodiesterase inhibiting activity, PDE 5; assay type: biochemical; details: isozyme from human platelets; 1 μM [3H]-cAMP or [3H]-cGMP; read-out: Inhibition of PDE Activity: IC50 PDE 5
T3 construct: from tissue; host or cells: human platelets
Experimental: as §1, §2

[6] = target: PDE 1 (Ca-calmodulin activatable PDE); assay: Phosphodiesterase inhibiting activity, PDE 1; assay type: biochemical; details: isozyme from dog heart; 1 μM [3H]-cAMP or [3H]-cGMP; read-out: Inhibition of PDE Activity: IC50 PDE 1
Experimental: as §1, §2

EC50 [1]: 0.0031 µM | IC50 [2]: 6.4 µM | IC50 [3]: > 10 µM | melting point: 145 to 147 °C | IC50 [4]: > 10 µM | IC50 [5]: 0.006 µM | IC50 [6]: > 10 µM
Compound: COc1ccc(CNc2nc(C(=O)Nc3cccnc3)nc3sc4c(c23)CCN(C)C4)cc1Cl [1-81]
